From US9113629B2, “4-amino-6-(4-substituted-phenyl)-picolinates and 6-amino-2-(4-substituted-phenyl)-pyrimidine-4-carboxylates and their use as herbicides” (DOW AGROSCIENCES LLC, priority 2013, dated 2015)
Where two headings read alike, the source gives them in different places.

Legend:
[1] = tested on: Key Grass and Sedge Weeds as well as Grass Crops; experiment: Post-emergent Test II herbicidal activity (Table 6); type: in vivo; details: post-emergence, 336 h; for pest or weed control at 70 g/ha: 70 g ai/ha; for pest or weed control at 140 g/ha: 140 g ai/ha
Method in brief: (§1)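 Post-emergence foliar spray, 187 L/ha, track sprayer at 43 cm above canopy. Carrier: acetone/water/IPA/DMSO/Atplus 411F/Triton X-155. Plants at 1st–2nd true leaf; subirrigated afterwards; % injury scored visually at 14 d.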

[2] = tested on: Key Broadleaf Weed and Crop Species; experiment: Post-emergent Test II herbicidal activity (Table 5); type: in vivo; details: post-emergence, 336 h, 14 days after application; for pest or weed control at 70 g/ha: application rate 70 g ai/ha; for pest or weed control at 140 g/ha: application rate 140 g ai/ha
Method in brief: as §1

[3] = CYPES: yellow nutsedge (Cyperus esculentus), read-out: Visual Growth Reduction (%) 14 Days After Application, CYPES
[4] = DIGSA: crabgrass (Digitaria sanguinalis), read-out: Visual Growth Reduction (%) 14 Days After Application, DIGSA
[5] = ECHCG: barnyardgrass (Echinochloa crus-galli), read-out: Visual Growth Reduction (%) 14 Days After Application, ECHCG
[6] = ORYSA: rice (Oryza sativa), crop, read-out: Visual Growth Reduction (%) 14 Days After Application, ORYSA
[7] = SETFA: giant foxtail (Setaria faberi), read-out: Visual Growth Reduction (%) 14 Days After Application, SETFA
[8] = SORVU: grain sorghum (Sorghum vulgare), read-out: Visual Growth Reduction (%) 14 Days After Application, SORVU
[9] = TRZSS (wheat, Triticum aestivum), crop, read-out: Visual Growth Reduction (%) 14 Days After Application, TRZSS
[10] = ZEAMX: maize, corn (Zea mays), crop, read-out: Visual Growth Reduction (%) 14 Days After Application, ZEAMX
[11] = ABUTH: velvetleaf (Abutilon theophrasti), read-out: Visual Growth Reduction (%) 14 Days After Application, ABUTH
[12] = AMARE: redroot pigweed (Amaranthus retroflexus), read-out: Visual Growth Reduction (%) 14 Days After Application, AMARE
[13] = BRSNN: oilseed-rape, canola (Brassica napus), read-out: Visual Growth Reduction (%) 14 Days After Application, BRSNN
[14] = CHEAL: lambsquarters (Chenopodium album), read-out: Visual Growth Reduction (%) 14 Days After Application, CHEAL
[15] = EPHHL: wild poinsettia (Euphorbia heterophylla), read-out: Visual Growth Reduction (%) 14 Days After Application, EPHHL
[16] = HELAN: sunflower (Helianthus annuus), read-out: Visual Growth Reduction (%) 14 Days After Application, HELAN
[17] = VIOTR: wild pansy (Viola tricolor), read-out: Visual Growth Reduction (%) 14 Days After Application, VIOTR

## Nc1c(F)c(-c2ccc(Br)cc2)nc(C(=O)O)c1Cl [Compound 20]
[1]; [3]
  pest or weed control at 70 g/ha: 95 to 100%
  pest or weed control at 140 g/ha: 95 to 100%
[1]; [4]
  pest or weed control at 70 g/ha: 95 to 100%
  pest or weed control at 140 g/ha: 95 to 100%
[1]; [5]
  pest or weed control at 70 g/ha: 95 to 100%
  pest or weed control at 140 g/ha: 95 to 100%
[1]; [6]
  pest or weed control at 70 g/ha: 60 to 74%
  pest or weed control at 140 g/ha: 60 to 74%
[1]; [7]
  pest or weed control at 70 g/ha: 95 to 100%
  pest or weed control at 140 g/ha: 95 to 100%
[1]; [8]
  pest or weed control at 70 g/ha: 95 to 100%
  pest or weed control at 140 g/ha: 95 to 100%
[1]; [9]
  pest or weed control at 70 g/ha: 75 to 84%
  pest or weed control at 140 g/ha: 75 to 84%
[1]; [10]
  pest or weed control at 70 g/ha: 95 to 100%
  pest or weed control at 140 g/ha: 95 to 100%
[2]; [11]
  pest or weed control at 70 g/ha: 95 to 100%
  pest or weed control at 140 g/ha: 95 to 100%
[2]; [12]
  pest or weed control at 70 g/ha: 95 to 100%
  pest or weed control at 140 g/ha: 95 to 100%
[2]; [13]
  pest or weed control at 70 g/ha: 95 to 100%
  pest or weed control at 140 g/ha: 95 to 100%
[2]; [14]
  pest or weed control at 70 g/ha: 95 to 100%
  pest or weed control at 140 g/ha: 95 to 100%
[2]; [15]
  pest or weed control at 70 g/ha: 95 to 100%
  pest or weed control at 140 g/ha: 95 to 100%
[2]; [16]
  pest or weed control at 70 g/ha: 95 to 100%
  pest or weed control at 140 g/ha: 95 to 100%
[2]; [17]
  pest or weed control at 70 g/ha: 95 to 100%
  pest or weed control at 140 g/ha: 95 to 100%
